Test results published in ChEMBL document CHEMBL1201862, “PubChem BioAssay data set” (2004).
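Assay format: 96-well plates, 48-hour exposure. At the GI50, growth is halved.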 Calls of active or inactive are those of the source. Rule as the data show it: active = GI50 up to about 1.1 µM and inactive = higher.

Tests used:
Assay in all cases: NCI tumour cell line growth inhibition, 48 h
DU-145 = test system: DU-145
HL-60 = test system: HL-60
HOP-92 = test system: HOP-92
Hs-578T = test system: Hs-578T
LOX IMVI = test system: LOX IMVI
MCF7 = test system: MCF7
MDA-MB-231 = test system: MDA-MB-231
MDA-MB-435 = test system: MDA-MB-435
MDA-N = test system: MDA-N
NCI/ADR-RES = test system: NCI/ADR-RES
PC-3 = test system: PC-3
T47D = test system: T47D

Measured: GI50

C/C=C/C=C/c1cc2cc3c(c(O)c2c(=O)[nH]1)C1(CC3)C(=O)c2c(O)c3c(c(O)c2C1=O)C(=O)C(OC)=CC3=O (configuration not stated)
active: DU-145 378 nM | HL-60 < 10 nM | HOP-92 32.8 nM | Hs-578T 132 nM | LOX IMVI 20.5 nM | MCF7 68.1 nM | MDA-MB-231 203 nM | MDA-MB-435 303 nM | MDA-N 267 nM | NCI/ADR-RES 283 nM | PC-3 57.3 nM | T47D < 10 nM
